Measurements reported in US20220096450A1, “Compounds and Methods for Treating or Preventing Heart Failure” (DREXEL UNIVERSITY, priority 2019, published 2022).

What was measured:
[1] = Cell Counting Kit-8 cytotoxicity assay in H9C2 cells; type: cell-based; settings: rat
Method: (§1) H9C2 cells, a rat ventricular cardiomyoblast cell line were obtained from ATCC (CRL-1446) and maintained in Dulbecco's modified Eagle's medium (DMEM) containing 10% FBS and 1× GlutaMAX. For hypertrophy studies, the cells were plated onto 4-well glass chamber slides precoated with poly-D-lysine. The maintenance medium was aspirated after 24 h and the cells were serum-starved overnight in DMEM containing 1% FBS and 1× GlutaMAX and then incubated for 48 h in fresh serum-starved medium containing isoproterenol, as indicated.
(§2) Cytotoxicity assays were conducted under the same conditions used for hypertrophy assays with NVCMs or H9C2 cells, as described elsewhere herein.

[2] = tested on: mitochondrial CoQ-dependent respiratory complex I; assay: Biochemical selectivity assay, respiratory complex I; design: species or system mouse; settings: highest concentration tested 11 μM
Method: Inhibitor selectivity was assessed using mouse muscle homogenate preparations that contain disrupted mitochondrial membranes, a feature that makes substrates accessible to each of the membrane-bound respiratory complexes. Spectrophotometric assays for each complex are conducted in the presence or absence of a target-specific inhibitor (FIG. 9) to correct for nonspecific substrate oxidation, as previously described (Spinazzi et al., 2012, Nature Protocols 7: 1235-1246). Thus, the activity of complex I is determined by monitoring the oxidation of NADH in the absence or presence of rotenone. Complex III activity is measured based on the rate of cytochrome C reduction observed in the presence or absence of antimycin A. The reaction catalyzed by complex II produces decylubiquinol (decylCoQH2), which rapidly reduces DCIP.

[3] = tested on: H9C2 cells; assay: Isoproterenol-induced hypertrophy assay in H9C2 cells; type: cell-based, rat; settings: isoproterenol 100 μM 24 h, then 50 μM 24 h; 10.5 μM FC9402
Method: as §1, with “indicated. […] Images were acquired using a FV3000 Olympus Confocal Microscope and analyzed using ImageJ. Cell surface area was determined by encircling the outer membrane of 30-50 cells per field in 6-10 field images for a total of 500 cells per condition.” for “indicated.”

[4] = Cell Counting Kit-8 cytotoxicity assay in NVCMs; type: cell-based; settings: Sprague-Dawley, rat, rat neonatal ventricular cardiomyocytes (NVCMs)
Description: Rat neonatal ventricular cardiomyocytes (NVCMs) were isolated from the hearts of 1-2 day old Sprague-Dawley rats (Charles River) in 50-90% yield (70-95% viability) by following the protocol described by Golden et al. (Golden et al., 2012, in Cardiovascular Development. Methods in Molecular Biology (Methods and Protocols), vol 843 (Peng, X., Antonyak, M., Eds.) pp 205-214, Springer, Totowa, N.J.).
NVCMs are maintained in Dulbecco's modified Eagle's medium (DMEM:F12) containing 20% fetal bovine serum (FBS), 5% horse serum, 1× GlutaMAX, and 2 μg/mL insulin. For hypertrophy studies, cells were plated onto 4-well glass chamber slides, precoated with poly-D-lysine and laminin. The maintenance medium was aspirated after incubation for 72 h. The cells were serum-starved overnight in DMEM:F12 containing 1% FBS, 1× GlutaMAX, and 2 ug/mL insulin and then incubated for 24 h in fresh serum-starved medium containing angiotensin II, as indicated.
as §2

## COc1nc(-c2ncccc2C)cc(-c2ccc(N)cc2)c1C#N [FC9402, 4-(4-aminophenyl)-2-methoxy-6-(3-methylpyridin-2-yl)pyridine-3-carbonitrile]
[1]
  CC50 at 48 h: 56 ± 10 µM
[2]
  inhibition of respiratory complex I: did not inhibit
[3]
  hypertrophic response (cell surface area): mitigates the hypertrophic response
[4]
  CC50 at 24 h: 27.9 ± 2.6 µM
